Data as given in patent publication US7662361B2, “Methods and compositions for modulating drug activity through telomere damage” (priority 1999, dated 2010).
Marks after values point to notes of the source that are not given here.

How the values were obtained:
PC3 cells = experiment: Cell detachment from the growth surface; type: cell-based, human; settings: 20 nM paclitaxel, end of 96-hr experiment
Method: (§1) Upon drug treatment, the supernatant along with two subsequent Versene rinses, which contained the detached cells, were collected. […] These samples were centrifuged at 1500 rpm for 10 min and the resulting cell pellets were resuspended in 2 ml of culture media. The cell number in the detached and attached fractions were counted using a Coulter counter (Coulter Electronic, Inc., Hialeah, Fla.).

solid tumors = settings: Gan et al (1996); read-out: concentration that caused 50% cytotoxicity in solid tumors; cited from earlier work
[1] = tested on: telomerase activity of FaDu cells; experiment: TRAP telomerase activity in drug-treated cells; type: cell-based, human; settings: 200 nM paclitaxel
Method: For the preparation of cell and tissue extracts, cells and tissue were harvested, washed, and stored at −70° C. Cells were then lysed in a SDS-based lysis buffer (10 mM Tris.HCl, pH 7.5, 1 mM MgCl2, 1 mM EGTA, 0.1 mM phenylmethylsulfonyl fluoride, 5 mM β-mercaptoethanol, 0.1% CHAPS, and 10% glycerol), on ice for 10 min. To this mixture, three volumes of CHAPS-based buffer (10 mM Tris-HCl, pH 7.5, 1 mM MgCl2, 1 mM EGTA, 0.1 mM phenylmethylsulfonyl fluoride, 5 mM β-mercaptoethanol, 0.5% CHAPS, and 10% glycerol) were added and kept on ice for 5 min. […] For the extraction of tissues, tissues were homogenized in SDS-based lysis buffer with a Kontes pellet pestle (Fisher, Pittsburgh, Pa.), mixed with three volumes of CHAPS-based buffer, and centrifuged were centrifuged at 8,000 g for 15 min at 4° C. The supernatant was kept at −20° C. The protein concentration of the supernatant was determined using Bicinchoninic Acid Kit (Sigma, St Louis, Mo.). The protein concentration was adjusted to 0.5 μg/μl with CHAPS-based buffer. Samples with equal amounts of protein (1-2 μg) were analyzed by TRAP. […] The TRAP reaction mixture contained 2-4 μl of protein extract, 20 mM Tris.HCl (pH 8.3), 1.5 mM MgCl2, 63 mM KCl, 0.005% Tween-20, 1 mM EGTA, 50 μM dNTPs, 0.1 μg of TS primer, 0.1 mg/ml bovine serum albumin. The mixture was incubated at 30° C. for 30 min, then at 90° C. for 2 min.
This was accomplished by using phenol/chloroform extraction of the cell lysate, as follows. One μg of tRNA and 0.1 ng internal control template were added to the reaction solution after primer extension. The total volume of the mixture was brought to 100 μl with water, mixed with an equal volume of buffer saturated phenol (Life Technology) and then centrifuged at 18,000 g for 3 min, at room temperature. The top aqueous layer (90 μl) was carefully transferred to a new tube and mixed with an equal volume of chloroform:isoamyl alcohol (24:1) solution and centrifuged at 18,000 g for 3 min, at room temperature. The top aqueous layer (80 μl) was again transferred to a new tube and the nucleotides were precipitated with 0.2 volume of 3 M sodium acetate (pH 5.3) and 3 volume of 100% ethanol at −70° C. for at least 2 hr. The mixture was centrifuged at 18,000 g for 15 min at 4° C. […]
(§2) The template for the internal standard was amplified by PCR and purified by spin columns (QIAquick PCR purification kit, Qiagen, Valencia, Calif.). The concentration was determined by a spectrophotometer.
PCR was performed on the GeneAmp PCR system 2400 (Perkin Elmer) and initiated by 1 cycle at 94° C. for 3 min, 50° C. for 4 min, and 68° C. for 2 min, then 25 rounds at 94° C. for 30 sec, 50° C. for 30 sec, and 68° C. for 90 sec, followed by 68° C. for 10 min. […] The gel was then dried and the amplification products were detected. […]

[2] = Host toxicity (body weight, death) in xenograft-bearing mice; settings: single agents
Method: (§3) The activity of paclitaxel, with or without AZT, was evaluated in immunodeficient mice (male Balb/c nu/nu mice, 6-8 weeks old) bearing the human pharynx FaDu xenografts. […] The saline control group received injections of 200 μl/day of physiological saline of five consecutive days. The paclitaxel group received injections of 10 mg/kg/day paclitaxel dissolved in Cremophor and ethanol (i.e., Taxol) in a volume of 200 μl for five consecutive days. The AZT group received a seven-day infusion of AZT at a rate of 200 ng/hr by a subcutaneously implanted Alzet minipump. […] Animal weights and tumor sizes were measured on days 1, 3, 6, 8, and 10 after initiation of the paclitaxel treatment.

[3] = tested on: human pharynx FaDu xenografts; experiment: Antitumor effect in mice bearing FaDu xenografts
Method: as §3
The antitumor effect of the drug treatments was measured in three ways. The first was the reduction in tumor size. Tumor sizes were determined by first preparing a mold of the extruding tumor using Jeltrate, a rapidly setting molding material, and then preparing and weighing the countermold. Second, the apoptotic effect was measured. […] The tumor sections were evaluated morphologically for tumor cell density, and density of apoptotic cells. […] Third, the ability of drug treatment to prolong the survival time was measured. For this study, the animals were monitored for 100 days, or until moribundity, defined by a tumor length exceeding 1.0 cm, was reached.

FaDu, MCF7 and PC3 cells = experiment: Cell Death Detection ELISA, release of DNA-histone complex; type: cell-based, human; settings: single agents vs untreated controls
Method: Apoptosis was measured as the release of DNA-histone complex from the nucleus to the cytoplasm, using the Cell Death Detection ELISA kit which quantifies the amount of DNA-histone complex released into the cytoplasm. Briefly, drug-treated cells were collected and lysed in the lysis buffer. The cytoplasmic fractions of the lysates were placed in wells of a 96-well microtiter plate pre-coated with mouse antihistone primary antibody and mouse anti-DNA-antibody conjugated to peroxidase. The peroxidase substrate, 2,2′-azido-di-[3-ethylbenzthiazoline sulfonate], was applied and the absorbance at 405 nm was measured.
Treatment Protocol. Treatment with the above agents was initiated after cells were allowed to attach to the growth surface in culture flasks. […]
Drug activity evaluation. Agent effect was measured in three ways, i.e., enumeration of the number of cells that remained attached in culture flask, enumeration of the number of cells that detached from the growth surface, and by measuring changes in apoptosis. […] The remaining cell number after agent treatment was measured using the sulforhodamine B (SRB) assay. The drug-induced detachment of cells from the growth surface was determined by counting the attached and detached cells. Drug-induced apoptosis was measured using the Cell Death Detection ELISA kit which measures the release of DNA-histone complex from the nucleus to the cytoplasm. […]

FaDu cells [4] = experiment: SRB assay of cell number, AZT and paclitaxel; type: cell-based, human; settings: 24 hr
Method: In brief, cells were seeded onto 96-well plates. To avoid changes in drug concentration caused by excessive evaporation of medium in wells located at the edge of the plate only the inner wells in 96-well plates were used. The outer wells contained only tissue culture media to serve as blanks. At the end of drug treatment, the culture medium was removed from the wells by aspiration and the cells were then fixed by incubating with 0.2 ml 10% trichloroacetic acid at 4° C. for 1 hr, followed by five washes with distilled water. The plates were then air-dried after which SRB solution (0.05 ml of 0.4%) was added to stain cells for 10 min at room temperature. […] The amount of SRB was measured by absorbance at 490 nm using an EL 340 microplate biokinetics reader (Bio-Tek Instruments, Inc., Winooski, Vt.). The absorbance is proportional to the number of cells attached to the culture plate. […]
Drug activity evaluation. Agent effect was measured in three ways, i.e., enumeration of the number of cells that remained attached in culture flask, enumeration of the number of cells that detached from the growth surface, and by measuring changes in apoptosis. […] The remaining cell number after agent treatment was measured using the sulforhodamine B (SRB) assay. The drug-induced detachment of cells from the growth surface was determined by counting the attached and detached cells. […]

telomere length = experiment: TALA telomere length, paclitaxel and AZT alone or in combination; type: cell-based, human
Description: The effect of paclitaxel and AZT, alone or in combination, on telomere length was studied using TALA.

FaDu cells [5] = experiment: Cell detachment from the growth surface; type: cell-based, human; settings: 200 nM paclitaxel, end of 48-hr treatment
Method: as §1
Treatment with the above agents was initiated after cells were allowed to attach to the growth surface in culture flasks. On the day of experiments, the culture medium was removed and replaced with drug-containing medium. […] For d4T, two concentrations, 20 μM and 40 μM were used.
Agent effect was measured in three ways, i.e., enumeration of the number of cells that remained attached in culture flask, enumeration of the number of cells that detached from the growth surface, and by measuring changes in apoptosis. […] The drug-induced detachment of cells from the growth surface was determined by counting the attached and detached cells.

SKOV3 cells [6] = experiment: FISH detection of damaged telomeres after paclitaxel treatment; type: cell-based, human; settings: 200 nM paclitaxel
Description: Fluorescent in situ hybridization (FISH). Fluorescent in situ hybridization (FISH) was used to identify the presence and to estimate the approximate length of individual telomere structures at the end of chromosomes. The FISH method used was a modification of a previously published method (Multani A S et al. (1996) Anticancer Res 16: 3435-3438; Henderson S et al. (1996) J Cell Biol 134:1-12), and consists of the following three steps: (a) the cells are fixed in a manner that promotes spreading of the chromosomes, (b) a nucleotide sequence complementary to the telomere sequence is used as probe to bind to the telomeres and to provide a point of attachment for fluorescently-labeled antibodies, and (c) the fluorescent signal is identified using fluorescent microscopy.
The methods are as follows. To spread the chromosomes, the cell pellet was incubated with a hypotonic solution (75 mM KCl) at 37° C. for 20 min, washed three times and fixed with acetic acid and methanol, dropped onto slides, air-dried, and denatured in 2×SSC and 70% formamide at 74° C. for 5 min. To detect the telomeres, the cells were incubated with a digoxigenin-labeled human telomeric probe (Oncor) at 37° C. for 16 to 18 hr. The slides were washed consecutively in 2×SSC at 42° C. and 72° C., each time for 5 min. After blocking with 5% skim milk for 10 min, cells were incubated sequentially with rhodamine-labeled (red color) anti-digoxigenin, rabbit anti-sheep, and rhodamine-labeled anti-rabbit antibodies, at room temperature for 30 min. Between each step, the slides were washed three times in 130 mM phosphate buffer, pH 7.4, 0.1% Triton X-100, each time for 5 min. The chromosomes were then counterstained with 0.1 μg/ml of […] (blue color) and examined under a fluorescence microscope at 100× magnification using a triple band pass filter at 340 nm.

[7] = tested on: telomerase activity in histocultures of FaDu xenograft tumors; experiment: TRAP telomerase activity in tumor histocultures; type: cell-based, human; settings: 1 μM paclitaxel
Method: Histocultures of solid tumors. Histocultures are cultures of tumor fragments where the three dimensional structure and the heterogeneous tissue composition are maintained. […] Tumor specimens were washed three times with culture medium for three times and dissected into about 1 mm^3 fragments under sterile conditions. The culture medium for the FaDu histocultures was MEM supplemented with 9% heat-inactivated FBS, 2 mM glutamine, 90 μg/ml gentamicin and 90 μg/ml cefotaxime sodium.
For the preparation of cell and tissue extracts, cells and tissue were harvested, washed, and stored at −70° C. […] The protein concentration of the supernatant was determined using Bicinchoninic Acid Kit (Sigma, St Louis, Mo.). […] Samples with equal amounts of protein (1-2 μg) were analyzed by TRAP. […]
as §2
PCR was performed on the GeneAmp PCR system 2400 (Perkin Elmer) and initiated by 1 cycle at 94° C. for 3 min, 50° C. for 4 min, and 68° C. for 2 min, then 25 rounds at 94° C. for 30 sec, 50° C. for 30 sec, and 68° C. for 90 sec, followed by 68° C. for 10 min. […] The gel was then dried and the amplification products were detected.

FaDu cells [8] = experiment: Externalization of phosphatidylserine (Annexin V); type: cell-based, human; settings: 200 nM paclitaxel
Description: Externalization of phosphatidylserine. Apoptotic cells lose membrane phospholipid asymmetry and expose phosphatidylserine on the outer leaflet of plasma membrane. The externalized phosphatidylserine was labeled with Annexin V attached to a fluorescence probe FITC (green fluorescence), using the ApoAlert Annexin V assay (Clontech). As apoptosis progresses, propidium iodide penetrates the cell membrane and stains the cytoplasm (yellow-red stain). Briefly, cells were suspended in binding buffer, incubated with Annexin V-FITC and propidium iodide for 5-15 min in the dark, and examined by fluorescence microscopy. Cells labeled with FITC and/or propidium iodide were scored.

[9] = mouse, in vivo
Method: as §3

SKOV3 cells [10] = experiment: TALA telomere length after paclitaxel treatment; type: cell-based, human; settings: 200 nM paclitaxel

## CC(=O)O[C@H]1C(=O)[C@@]2(C)[C@H]([C@H](OC(=O)c3ccccc3)[C@]3(O)C[C@H](OC(=O)[C@H](O)[C@@H](NC(=O)c4ccccc4)c4ccccc4)C(C)=C1C3(C)C)[C@]1(OC(C)=O)CO[C@@H]1C[C@@H]2O [paclitaxel]
PC3 cells
  detached cell fraction: 68%
Solid tumors
  IC50: 1000 nM
[1]; 3 hr
  peak telomerase activity: ~180 % of control value
[1]; 24 hr
  telomerase activity: returning to the baseline level
[1]; 48 hr
  telomerase activity: 50 % of the control values
[2]
  toxicity-related death: no toxicity-related death
[3]; Kaplan Meier analysis, monitored 100 days
  median time to reach moribundity: 42 days
[3]; of 12 animals
  tumor-free survivors: did not show tumor-free survivors
FaDu, MCF7 and PC3 cells
  release of DNA-histone complex from the nucleus to the cytoplasm: significant enhancement
FaDu cells [4]; Homo sapiens, FaDu, paclitaxel alone, up to 10 μM, read-out: maximum effect (reduction of cell number)
  Emax: 35%
FaDu cells [4]; paclitaxel alone 100 nM, fixed concentration method
  cell number: about 65 % of the control value
Telomere length; 200 nM paclitaxel 24 hr, combination: 10 μM AZT 24 hr pretreatment then AZT plus paclitaxel 24 hr
  shortening of the average telomeric length: 13%
Telomere length; paclitaxel 36 hr
  telomere shortening on extending treatment: did not produce a greater telomere shortening
FaDu cells [5]
  detached cell fraction: about 40%
SKOV3 cells [6]; 1 and 12 hr
  attached cells showing damaged telomeres: < 5%
SKOV3 cells [6]; 1 hr
  detached cells showing damaged telomeres: 40%
SKOV3 cells [6]; 12 hr
  detached cells showing damaged telomeres: 90%
SKOV3 cells [6]; FaDu and SKOV3
  treatment time after which shortening or deletion of telomeres was detectable: 1 h
[7]
  time of peak telomerase activity: 12 h
[7]; 96 hr
  telomerase activity: about 50 % of the baseline level
FaDu cells [8]; attached cells
  fraction labeled for externalized phosphatidylserine: 6-8%
FaDu cells [8]; detached cells
  time at which labeled fraction became significantly higher than untreated controls: 12 h
FaDu cells [8]; detached cells, 24 hr
  fraction labeled for externalized phosphatidylserine: 60%
[9]
  End-of-experiment body weight: 97∀6 ^a % of pretreatment value
  body weight loss compared to the pretreatment weight: < 3%
SKOV3 cells [10]; 24 hr, compared to untreated controls
  shortening of telomeric length: 13%
SKOV3 cells [10]; 36 hr
  telomere shortening on extending treatment: did not produce a greater telomere shortening
